In data set [1] the test system is SARS-CoV-2.
Data set [2] relates to Huh-7.5/F-Luc cells. Conditions: for % cell viability at max. dose [5 µM]: at max. dose 5 µM.
Data set [3] can be described thus: in vitro.
The subject of data set [4] is HCoV-229E. Briefly: microbe, parasite or virus in culture. It counts as cell-based, Homo sapiens sapiens. The note with it: for IC50: read-out: IC50.
The mark [5] stands for this setting: Calu-3 cells, immunofluorescence imaging.
The mark [6] stands for this setting: Huh-7.5 cells, dose series, maximum tested dose 5 µM.
The mark [7] stands for this setting: HCoV 229E infection, dose series, max. dose 5 µM.

Where a name gives a salt, the structure may show the parent alone. Read-outs that look alike come from different tables or passages of the source. Where a SMILES comes first, the peptide text is derived from it. The star is where a group is joined. Cbz = O=C(OCc1ccccc1)*; CHN2 = [N-]=[N+]=C*

In the case of `CC/C(=C(\c1ccccc1)c1ccc(OCCN(C)C)cc1)c1ccccc1` [Tamoxifen citrate], the “Anti-SARS-CoV-2 screening on Calu-3 cells: intracellular SARS-CoV-2 infection measured via immunofluorescence imaging [% of control]” value in data set [1] is given as 106.52 % of control. Besides, in data set [2], the “CC50 (µM)” value is reported as “greater than maximum tested dose”. In addition, the viability at 48 h, 5 µM in data set [3] came to 102%.

As for `CCN(CC)CCOc1ccc(/C(=C(/Cl)c2ccccc2)c2ccccc2)cc1` [enclomiphene citrate], the “Anti-SARS-CoV-2 screening on Calu-3 cells: intracellular SARS-CoV-2 infection measured via immunofluorescence imaging [% of control]” value in data set [1] was 91.35 % of control. For the same molecule, the “CC50 (µM)” value in data set [2] was “greater than maximum tested dose”. For the same molecule, in data set [3], the viability at 48 h, 5 µM came to 102%.

On to `CC(C)CC(NC(=O)OCc1ccccc1)C(=O)NC(C(=O)NCC(=O)C=[N+]=[N-])C(C)C` (stereo not drawn) [Z LVG CHN2] (Cbz-Leu-Val-Gly-CHN2; configuration not given here), for which the “Anti-SARS-CoV-2 screening on Calu-3 cells: viability [% of control]” value in data set [1] (Calu-3 cells) was 97.82 % of control. In data set [1] (setting [5]), the “Anti-SARS-CoV-2 screening on Calu-3 cells: intracellular SARS-CoV-2 infection measured via immunofluorescence imaging [% of control]” value is 105.09 % of control. Besides, in data set [2] (setting [6]), the “CC50 (µM)” value was “greater than maximum tested dose”. The “% cell viability at max. dose [5 µM]” value in data set [2] amounted to 182.31%. Further, the IC50 in data set [4] worked out at 70 nM.

`C1=C(c2ccc(CN3CCCCC3)cc2)N2CCN=C2c2ccccc21` [SDZ-62-434]: the “Anti-SARS-CoV-2 screening on Calu-3 cells: viability [% of control]” value in data set [1] (Calu-3 cells) was 104.96 % of control. In addition, the “Anti-SARS-CoV-2 screening on Calu-3 cells: intracellular SARS-CoV-2 infection measured via immunofluorescence imaging [% of control]” value in data set [1] (setting [5]) is recorded as 96.11 % of control. Besides, in data set [2] (setting [6]), the “CC50 (µM)” value is on record as “greater than maximum tested dose”. Also, the “% cell viability at max. dose [5 µM]” value in data set [2] was 157.85%. Also, in data set [4] (setting [7]), the IC50 was 760 nM.

For the molecule `c1ccc(CCCC(Oc2ccccc2OCc2ccccc2)C2=NCCN2)cc1` (stereo not drawn) [MDL 102588], the “Anti-SARS-CoV-2 screening on Calu-3 cells: viability [% of control]” value in data set [1] (Calu-3 cells) is listed as 101.49 % of control. In data set [1] (setting [5]), the “Anti-SARS-CoV-2 screening on Calu-3 cells: intracellular SARS-CoV-2 infection measured via immunofluorescence imaging [% of control]” value was 108.93 % of control. Besides, in data set [2] (setting [6]), the “CC50 (µM)” value is given as “greater than maximum tested dose”. In data set [2], the “% cell viability at max. dose [5 µM]” value was 109.08%. Also, the IC50 in data set [4] (setting [7]) was 520 nM.

For the molecule `CC[C@H](NC(=O)[C@H](CS(=O)(=O)CC1CC1)N[C@@H](c1ccc(F)cc1)C(F)(F)F)C(=O)C(=O)NC1CC1` [VBY-825, reference compound], the “Anti-SARS-CoV-2 screening on Calu-3 cells: viability [% of control]” value in data set [1] (Calu-3 cells) is 100.68 % of control. Further, the “Anti-SARS-CoV-2 screening on Calu-3 cells: intracellular SARS-CoV-2 infection measured via immunofluorescence imaging [% of control]” value in data set [1] (setting [5]) is 101.42 % of control. For the same molecule, the “CC50 (µM)” value in data set [2] (setting [6]) is “greater than maximum tested dose”. Moreover, the “% cell viability at max. dose [5 µM]” value in data set [2] turned out to be 147.45%. Also, in data set [4] (setting [7]), the IC50 came to 210 nM. Further, the “antiviral activity against HCoV-229E” value in data set [4] (Huh-7.5/F-Luc cells) is “antiviral activity”.

On to `Oc1ccc(CCN2CCC(Nc3nc4ccccc4n3Cc3ccc(F)cc3)CC2)cc1` [DESMETHYLASTEMIZOLE], for which the “Anti-SARS-CoV-2 screening on Calu-3 cells: viability [% of control]” value in data set [1] (Calu-3 cells) is recorded as 121.52 % of control. In addition, the “Anti-SARS-CoV-2 screening on Calu-3 cells: intracellular SARS-CoV-2 infection measured via immunofluorescence imaging [% of control]” value in data set [1] (setting [5]) is 109.56 % of control. Moreover, the “CC50 (µM)” value in data set [2] (setting [6]) is reported as “greater than maximum tested dose”. In addition, in data set [2], the “% cell viability at max. dose [5 µM]” value worked out at 160.37%. Moreover, the IC50 in data set [4] was 1070 nM.

In the case of `CN(C)CCCN1c2ccccc2Sc2ccc(Cl)cc21` [Chlorpromazine69-09-0], in data set [1] (Calu-3 cells), the “Anti-SARS-CoV-2 screening on Calu-3 cells: viability [% of control]” value is given as 118.10 % of control. In addition, in data set [1] (setting [5]), the “Anti-SARS-CoV-2 screening on Calu-3 cells: intracellular SARS-CoV-2 infection measured via immunofluorescence imaging [% of control]” value was 120.36 % of control. In data set [2] (setting [6]), the “CC50 (µM)” value is recorded as “greater than maximum tested dose”. Besides, in data set [2], the “% cell viability at max. dose [5 µM]” value came to 144.29%. The IC50 in data set [4] (setting [7]) is 770 nM.

`CC(C)c1ccc(C(=O)c2cccs2)c(SCCCCCCCCN(C)C)n1` [Y 29794]: in data set [1] (Calu-3 cells), the “Anti-SARS-CoV-2 screening on Calu-3 cells: viability [% of control]” value is listed as 88.61 % of control. Also, in data set [1] (setting [5]), the “Anti-SARS-CoV-2 screening on Calu-3 cells: intracellular SARS-CoV-2 infection measured via immunofluorescence imaging [% of control]” value is 99.31 % of control. In data set [2] (setting [6]), the “CC50 (µM)” value is “greater than maximum tested dose”. The “% cell viability at max. dose [5 µM]” value in data set [2] was found to be 121.37%. Further, in data set [4] (setting [7]), the 50% inhibitory concentration (IC50) is 330 nM.

For `COc1cc(C(C)=O)ccc1OCCCN1CCC(C(O)(c2ccc(F)cc2)c2ccc(F)cc2)CC1` [AHR-5333], in data set [1] (Calu-3 cells), the “Anti-SARS-CoV-2 screening on Calu-3 cells: viability [% of control]” value is listed as 103.33 % of control. The “Anti-SARS-CoV-2 screening on Calu-3 cells: intracellular SARS-CoV-2 infection measured via immunofluorescence imaging [% of control]” value in data set [1] (setting [5]) is given as 98.57 % of control. Moreover, in data set [2] (setting [6]), the “CC50 (µM)” value is on record as “greater than maximum tested dose”. Besides, the “% cell viability at max. dose [5 µM]” value in data set [2] was 162.61%. The IC50 in data set [4] (setting [7]) was determined as 1000 nM.

Take `COc1ccc2cc(S(=O)(=O)N[C@H](CC(=O)N[C@H](Cc3ccc(CN4[C@H](C)CCC[C@@H]4C)cc3)C(=O)N(C)C(C)C)c3ccc4c(c3)OCO4)ccc2c1` [SSR240612]: in data set [1] (Calu-3 cells), the “Anti-SARS-CoV-2 screening on Calu-3 cells: viability [% of control]” value is 108.83 % of control. The “Anti-SARS-CoV-2 screening on Calu-3 cells: intracellular SARS-CoV-2 infection measured via immunofluorescence imaging [% of control]” value in data set [1] (setting [5]) is listed as 125.70 % of control. Further, the “CC50 (µM)” value in data set [2] (setting [6]) was “greater than maximum tested dose”. The “% cell viability at max. dose [5 µM]” value in data set [2] amounted to 127.22%. Further, the half-inhibitory concentration (IC50) in data set [4] (setting [7]) was found to be 530 nM.

Turning to `CC(C)(O)c1ccc2c(c1)/C(=C/CCN1CC[C@](O)(c3ccc(Cl)cc3)C(C)(C)C1)c1cccnc1CO2` [MLN-3897], the “Anti-SARS-CoV-2 screening on Calu-3 cells: viability [% of control]” value in data set [1] (Calu-3 cells) is listed as 106.59 % of control. Besides, the “Anti-SARS-CoV-2 screening on Calu-3 cells: intracellular SARS-CoV-2 infection measured via immunofluorescence imaging [% of control]” value in data set [1] (setting [5]) is listed as 101.50 % of control. The “CC50 (µM)” value in data set [2] (setting [6]) is “greater than maximum tested dose”. The “% cell viability at max. dose [5 µM]” value in data set [2] worked out at 122.09%. For the same molecule, the 50% inhibitory concentration (IC50) in data set [4] (setting [7]) worked out at 960 nM.

Consider `CN(C)CCC(Sc1cccc2ccccc12)c1cccs1` (stereo not drawn) [VUFB 18271], for which the “Anti-SARS-CoV-2 screening on Calu-3 cells: viability [% of control]” value in data set [1] (Calu-3 cells) is reported as 105.83 % of control. Moreover, the “Anti-SARS-CoV-2 screening on Calu-3 cells: intracellular SARS-CoV-2 infection measured via immunofluorescence imaging [% of control]” value in data set [1] (setting [5]) is given as 114.60 % of control. Further, the “CC50 (µM)” value in data set [2] (setting [6]) is recorded as “greater than maximum tested dose”. The “% cell viability at max. dose [5 µM]” value in data set [2] came to 117.62%. For the same molecule, the IC50 in data set [4] (setting [7]) came to 930 nM.

As for `COC(=O)C1=C(C)NC(C)=C(C(=O)OCCCCNC[C@H](O)COc2ccccc2)C1c1cccc([N+](=O)[O-])c1` (stereo partly drawn) [YM 430], in data set [1] (Calu-3 cells), the “Anti-SARS-CoV-2 screening on Calu-3 cells: viability [% of control]” value was 101.27 % of control. In addition, the “Anti-SARS-CoV-2 screening on Calu-3 cells: intracellular SARS-CoV-2 infection measured via immunofluorescence imaging [% of control]” value in data set [1] (setting [5]) was 99.21 % of control. For the same molecule, in data set [2] (setting [6]), the “CC50 (µM)” value is on record as “greater than maximum tested dose”. For the same molecule, the “% cell viability at max. dose [5 µM]” value in data set [2] is 137.51%. The IC50 in data set [4] (setting [7]) is 820 nM.

As to `Cc1c(-c2ccccc2)oc2ccc(OCCCCCCN3CCC(O)CC3)cc2c1=O` [NPC 16377], the “Anti-SARS-CoV-2 screening on Calu-3 cells: viability [% of control]” value in data set [1] (Calu-3 cells) is 101.43 % of control. Moreover, in data set [1] (setting [5]), the “Anti-SARS-CoV-2 screening on Calu-3 cells: intracellular SARS-CoV-2 infection measured via immunofluorescence imaging [% of control]” value is given as 119.40 % of control. For the same molecule, the “CC50 (µM)” value in data set [2] (setting [6]) is “greater than maximum tested dose”. The “% cell viability at max. dose [5 µM]” value in data set [2] is 107.69%. Also, the concentration for half-maximal inhibition (IC50) in data set [4] (setting [7]) was 1070 nM.

Consider `CN[C@H]1CC[C@@H](c2ccc(Cl)c(Cl)c2)c2ccccc21` [sertraline hydrochloride], for which the “Anti-SARS-CoV-2 screening on Calu-3 cells: intracellular SARS-CoV-2 infection measured via immunofluorescence imaging [% of control]” value in data set [1] is on record as 122.16 % of control. Also, the “CC50 (µM)” value in data set [2] is listed as “greater than maximum tested dose”. The viability at 48 h, 5 µM in data set [3] turned out to be 101%.

In general, viability refers to a read-out of living cells in per cent, often relative to untreated cells. The term IC50 denotes the point on the concentration scale where inhibition reaches its midpoint.

(Values after article PMC10916382, “Repurposing screen identifies novel candidates for broad-spectrum coronavirus antivirals and druggable host targets” (Antimicrobial Agents and Chemotherapy, 2024).)
